{
  "source": "BindingDB's records for doi:10.1021/jm030092d",
  "about": "(Research Triangle Institute, 2003)",
  "data": [
    {"experiment": "Inhibition of binding of [3H]DADLE to Opioid receptor delta 1 in guinea pig membranes", "units": {"Ki": "nM"}, "values": [
      {"smiles": "C[C@H]1CN(C/C=C/c2ccccc2)CC[C@@]1(C)c1cccc(O)c1", "note": "[3-[(3R,4R)-3,4-Dimethyl-1-((E)-3-phenyl-allyl)-piperidin-4-yl]-phenol]", "Ki": 322},
      {"smiles": "C[C@H]1CN(C/C=C/c2ccccc2Cl)CC[C@@]1(C)c1cccc(O)c1", "note": "[3-{(3R,4R)-1-[(E)-3-(2-Chloro-phenyl)-allyl]-3,4-dimethyl-piperidin-4-yl}-phenol]", "Ki": 168},
      {"smiles": "Cc1ccccc1/C=C/CN1CC[C@@](C)(c2cccc(O)c2)[C@@H](C)C1", "note": "[RTI-5989-25]", "Ki": 142},
      {"smiles": "C[C@H]1CN(CC[C@H](O)C2CCCCC2)CC[C@@]1(C)c1cccc(O)c1", "note": "[3-[1-(3-Cyclohexyl-3-hydroxy-propyl)-3,4-dimethyl-piperidin-4-yl]-phenol]", "Ki": 198}
    ]}
  ]
}
